Data published in patent US4792545A, “Boholmycin antibiotic” (Bristol-Myers Company, priority 1986, dated 1988).
Values after ≈ are worked out from the molar mass of the structure shown.

Legend:
[1] = tested on: S. aureus 209P; assay: MIC by serial agar dilution; type: cell-based; details: Staphylococcus aureus; S. aureus 209P; medium A: Nutrient agar; read-out: MIC
[2] = tested on: S. aureus Smith; assay: MIC by serial agar dilution; type: cell-based; details: Staphylococcus aureus; S. aureus Smith; medium A: Nutrient agar; read-out: MIC
[3] = tested on: S. aureus A20239; assay: MIC by serial agar dilution; type: cell-based; details: Staphylococcus aureus; S. aureus A20239, kanamycin resistant strain; medium A: Nutrient agar; read-out: MIC
[4] = tested on: M. luteus PCI-1001; assay: MIC by serial agar dilution; type: cell-based; details: Micrococcus luteus, PCI1001; M. luteus PCI-1001; medium A: Nutrient agar; read-out: MIC
[5] = tested on: M. flavus D-12; assay: MIC by serial agar dilution; type: cell-based; details: Micrococcus flavus, D12, medium A: Nutrient agar, read-out: MIC
[6] = tested on: B. subtilis ATCC6633; assay: MIC by serial agar dilution; type: cell-based; details: Bacillus subtilis, medium A: Nutrient agar, read-out: MIC
[7] = tested on: B. anthracis IID-115; assay: microbe, parasite or virus in culture; type: cell-based; details: Bacillus anthracis, IID115
[8] = tested on: E. coli NIHJ; assay: MIC by serial agar dilution; type: cell-based; details: Escherichia coli, medium A: Nutrient agar, read-out: MIC
[9] = tested on: E. coli Juhl; assay: MIC by serial agar dilution; type: cell-based; details: Escherichia coli, medium A: Nutrient agar, read-out: MIC
[10] = tested on: E. coli K-12; assay: MIC by serial agar dilution; type: cell-based; details: Escherichia coli, K12, medium A: Nutrient agar, read-out: MIC
[11] = tested on: E. coli A20664; assay: MIC by serial agar dilution; type: cell-based; details: Escherichia coli; E. coli A20664, kanamycin resistant strain; medium A: Nutrient agar; read-out: MIC
[12] = tested on: E. coli JR35/c600; assay: MIC by serial agar dilution; type: cell-based; details: Escherichia coli, JR35/C600
[13] = tested on: K. pneumoniae D-11; assay: MIC by serial agar dilution; type: cell-based; details: Klebsiella pneumoniae, D11, medium A: Nutrient agar, read-out: MIC
[14] = tested on: K. pneumoniae A9678; assay: MIC by serial agar dilution; type: cell-based; details: Klebsiella pneumoniae, medium A: Nutrient agar, read-out: MIC
[15] = tested on: E. cloacae A20364; assay: MIC by serial agar dilution; type: cell-based; details: Enterobacter cloacae; E. cloacae A20364, kanamycin resistant strain; medium A: Nutrient agar; read-out: MIC
[16] = tested on: E. cloacae A21006; assay: MIC by serial agar dilution; type: cell-based; details: Enterobacter cloacae; E. cloacae A21006, kanamycin resistant strain; medium A: Nutrient agar; read-out: MIC
[17] = tested on: P. mirabilis A9554; assay: MIC by serial agar dilution; type: cell-based; details: Proteus mirabilis, medium A: Nutrient agar, read-out: MIC
[18] = tested on: P. vulgaris A9436; assay: MIC by serial agar dilution; type: cell-based; details: Proteus vulgaris, medium A: Nutrient agar, read-out: MIC
[19] = tested on: S. marcescens A20019; assay: MIC by serial agar dilution; type: cell-based; details: Serratia marcescens, A20019
[20] = tested on: S. marcescens A22302; assay: MIC by serial agar dilution; type: cell-based; details: Serratia marcescens, A22302
[21] = tested on: P. aeruginosa A9930; assay: MIC by serial agar dilution; type: cell-based; details: Pseudomonas aeruginosa, medium A: Nutrient agar, read-out: MIC
[22] = tested on: P. aeruginosa A9843A; assay: microbe, parasite or virus in culture; type: cell-based; details: Pseudomonas aeruginosa, A9843A
[23] = tested on: P. aeruginosa A20601; assay: MIC by serial agar dilution; type: cell-based; details: Pseudomonas aeruginosa; P. aeruginosa A20601, kanamycin resistant strain; medium A: Nutrient agar; read-out: MIC
[24] = tested on: Mycobacterium 607 D87; assay: MIC by serial agar dilution; type: cell-based; details: Mycobacterium 607 D87; medium B: No. 1001 medium; read-out: MIC
[25] = tested on: Mycobacterium 607 D46; assay: MIC by serial agar dilution; type: cell-based; details: Mycobacterium 607 D46, kanamycin resistant strain; medium B: No. 1001 medium; read-out: MIC
[26] = tested on: Mycobacterium phlei; assay: MIC by serial agar dilution; type: cell-based; details: Mycolicibacterium phlei; Mycobacterium phlei; medium B: No. 1001 medium; read-out: MIC
[27] = tested on: Mycobacterium ranae; assay: MIC by serial agar dilution; type: cell-based; details: Mycobacterium ranae; medium B: No. 1001 medium; read-out: MIC
[28] = tested on: E. coli D64; assay: stimulating growth of streptomycin-dependent E. coli D64 (paper disc); type: cell-based; details: for Growth zone vs E. coli D64, hazy growth zone: value in parentheses
Text: The results are shown in Table 4 wherein the term "boholmycin" is used for short in referring to boholmycin dihydrochloride tetrahydrate.

[29] = tested on: B. subtilis PCI-219; assay: inhibiting growth of B. subtilis PCI-219 (paper disc); type: cell-based; details: Bacillus subtilis, PCI219, 28° C., 18 hours
Method: Boholmycin dihydrochloride tetrahydrate was tested in comparison with streptomycin, glebomycin, myomycin B and kanamycin in respect to stimulating growth of E. coli D64 and in respect to inhibiting growth of B. subtilis PCI-219. The results are shown in Table 4 wherein the term "boholmycin" is used for short in referring to boholmycin dihydrochloride tetrahydrate.
*^1 8 mm paper disc containing 35 μl of test solution
*^3 Incubation at 28° C. for 18 hours

[30] = tested on: S. aureus Smith; assay: in vivo efficacy in mice against experimental infection; details: Staphylococcus aureus, im, 120 h; mice, i.m. just before challenge, S. aureus Smith, 5 days observation; read-out: PD50
[31] = tested on: E. coli Juhl; assay: as above; details: Escherichia coli, im, 120 h; mice, i.m. just before challenge, E. coli Juhl, 5 days observation; read-out: PD50
[32] = tested on: K. pneumoniae D-11; assay: as above; details: Klebsiella pneumoniae, D11, im, 120 h; mice, i.m. just before challenge, K. pneumoniae D-11, 5 days observation; read-out: PD50
[33] = toxic signs in mice, intravenous administration; type: in vivo; details: up to a dose of 1,000 mg/kg
[34] = solubility; type: physicochemical
[35] = stability in solution; type: physicochemical
[36] = basicity; type: physicochemical
[37] = tested on: bacteria; assay: in vitro antibacterial activity, Table 3 panel overall; type: cell-based
Method: The minimum inhibitory concentration (MIC) of boholmycin dihydrochloride tetrahydrate was determined by a serial agar dilution method in comparison with sorbistin A1, streptomycin and kanamycin. Nutrient agar (Difco) was used for all bacteria except for strains of Mycobacterium which were tested in No. 1001 agar.

[38] = tested on: experimental infections produced by S. aureus, E. coli and K. pneumoniae; assay: in vivo activity in mice, Table 5 overall; details: i.m.

Question: With `CNC1C(OC2C(O)C(OC3OC(CO)C(O)C(N)C3O)C(OC(N)=O)C(O)C2OC(N)=O)OCC(OC2OC(C(O)CO)C(O)C(O)C2O)C1O` (centres unmarked) [Boholmycin] as the molecule, how does the MIC [1] read?
Answer: 200 µg/mL (≈ 262 µM)

Question: What about the MIC [2] of the same molecule?
Answer: 200 µg/mL (≈ 262 µM)

Question: And the MIC [3]?
Answer: > 200 µg/mL

Question: And the MIC [4]?
Answer: 200 µg/mL (≈ 262 µM)

Question: What about the MIC [5] of the same molecule?
Answer: 100 µg/mL (≈ 131 µM)

Question: And the MIC [6]?
Answer: 50 µg/mL (≈ 65.4 µM)

Question: And the MIC [7]?
Answer: 25 µg/mL (≈ 32.7 µM)

Question: What about the MIC [8] of the same molecule?
Answer: 50 µg/mL (≈ 65.4 µM)

Question: What about the MIC [9] of the same molecule?
Answer: 100 µg/mL (≈ 131 µM)

Question: And the MIC [10]?
Answer: 25 µg/mL (≈ 32.7 µM)

Question: What about the MIC [11] of the same molecule?
Answer: 12.5 µg/mL (≈ 16.3 µM)

Question: And the MIC [12]?
Answer: 25 µg/mL (≈ 32.7 µM)

Question: What about the MIC [13] of the same molecule?
Answer: 6.3 µg/mL (≈ 8.24 µM)

Question: What about the MIC [14] of the same molecule?
Answer: 100 µg/mL (≈ 131 µM)

Question: And the MIC [15]?
Answer: 50 µg/mL (≈ 65.4 µM)

Question: And the MIC [16]?
Answer: 50 µg/mL (≈ 65.4 µM)

Question: And the MIC [17]?
Answer: 50 µg/mL (≈ 65.4 µM)

Question: And the MIC [18]?
Answer: 6.3 µg/mL (≈ 8.24 µM)

Question: What about the MIC [19] of the same molecule?
Answer: 100 µg/mL (≈ 131 µM)

Question: And the MIC [20]?
Answer: 100 µg/mL (≈ 131 µM)

Question: And the MIC [21]?
Answer: 100 µg/mL (≈ 131 µM)

Question: What about the MIC [22] of the same molecule?
Answer: 200 µg/mL (≈ 262 µM)

Question: What about the MIC [23] of the same molecule?
Answer: 12.5 µg/mL (≈ 16.3 µM)

Question: And the MIC [24]?
Answer: 25 µg/mL (≈ 32.7 µM)

Question: What about the MIC [25] of the same molecule?
Answer: 25 µg/mL (≈ 32.7 µM)

Question: And the MIC [26]?
Answer: 6.3 µg/mL (≈ 8.24 µM)

Question: And the MIC [27]?
Answer: 25 µg/mL (≈ 32.7 µM)

Question: And the “Growth zone vs E. coli D64, hazy growth zone” value ([28]; 10 mg/ml, 37° C., 45 hours)?
Answer: 16 mm

Question: What about the “Growth zone vs E. coli D64” value ([28]; 40 mg/ml, 37° C., 45 hours) of the same molecule?
Answer: 18 mm

Question: What about the “Growth zone vs E. coli D64, hazy growth zone” value ([28]; 40 mg/ml, 37° C., 45 hours) of the same molecule?
Answer: 23 mm

Question: And the “induction/stimulation of growth of streptomycin-dependent E. coli D64” value ([28]; result in words)?
Answer: induced the growth

Question: And the zone of inhibition at 10000 µg/mL ([29]; 10 mg/ml)?
Answer: 30 mm

Question: What about the zone of inhibition at 40000 µg/mL ([29]; 40 mg/ml) of the same molecule?
Answer: 33 mm

Question: What about the ED50 [30] of the same molecule?
Answer: 75 mg/kg

Question: And the ED50 [31]?
Answer: 100 mg/kg

Question: What about the ED50 [32] of the same molecule?
Answer: 65 mg/kg

Question: What about the toxic signs [33] of the same molecule?
Answer: did not show any toxic signs

Question: What about the “solubility in methanol and ethanol” value ([34]; methanol and ethanol) of the same molecule?
Answer: slightly soluble in methanol and ethanol

Question: What about the “solubility in other organic solvents” value ([34]; other organic solvents) of the same molecule?
Answer: practically insoluble in other organic solvents

Question: And the solubility in water ([34]; water)?
Answer: freely soluble in water

Question: What about the “stability in alkaline solution” value ([35]; alkaline solution) of the same molecule?
Answer: unstable in alkaline solution

Question: What about the “stability in neutral and acidic solution” value ([35]; neutral and acidic solution) of the same molecule?
Answer: reasonably stable in neutral and acidic solution

Question: And the basicity [36]?
Answer: weakly basic

Question: And the “antibacterial activity compared with sorbistin A1” value ([37]; Table 3 overall, vs sorbistin A1)?
Answer: comparable to that of sorbistin A1

Question: And the “antibacterial activity compared with streptomycin or kanamycin” value ([37]; Table 3 overall, vs streptomycin or kanamycin)?
Answer: generally weaker than that of streptomycin or kanamycin

Question: What about the “activity against kanamycin and streptomycin-resistant organisms” value ([37]; resistant vs sensitive organisms) of the same molecule?
Answer: as active against kanamycin and streptomycin-resistant organisms as against the sensitive ones

Question: What about the “in vivo activity compared with streptomycin and kanamycin” value [38] of the same molecule?
Answer: much less active than streptomycin and kanamycin
